Reference: US8012414B2, “Sterilization of drugs using supercritical carbon dioxide sterilant” (Novasterilis, priority 2007, dated 2011)

Test: State of micro-crystalline/powder drug after supercritical CO2 sterilization with peracetic acid additive
Type: physicochemical
Details: 1500 psi, 35° C., 180 minutes, Peracetic Acid 16 mL
Procedure: For these products, the input or flow of CO2 through valve 24 into the reactor pressure vessel 22 is regulated to 0.01 to 5 psi/second. Regulating the rate of pressurization is also intended to control mass flow (1000 mg/second) of CO2 into the reactor pressure vessel 22. In the initial fill, the valve 24 is opened and allowed to flow at the regulated rate using the ambient pressure of the CO2 supply from the gas cylinder 12. The CO2 supply pressure can range from 75 psi to approximately 900 psi or greater. Once the pressure in reactor pressure vessel 22 reaches equilibrium with the CO2 supply source pressure, the pumping of the CO2 using the carbon dioxide booster 16 begins. […] Once the reactor pressure vessel 22 reaches its operating pressure of 1500 psi, the process is allowed to continue through its normal path. Upon completion of the desired time period at the operating temperature and pressure, depressurization of the reactor pressure vessel 22 then occurs. […] Regulating the rate of depressurization is also intended to control of mass flow of CO2 out of the reactor pressure vessel 22. The rate of depressurization is controlled at this rate until the ambient pressure in the reactor pressure vessel 22 is zero or at equilibrium with the atmospheric pressure. Ambient conditions are generally zero psi and 25 degrees C. […]

State of the Corticosteroid drug after sterilization (look and feel of powder) (CO2 pressurization 5 psi/second, depressurization 50 psi/second): unchanged | State of the Corticosteroid drug after sterilization (look and feel of powder) (CO2 pressurization 75 psi/second (unrestricted), depressurization 100 psi/second): changed
Substance: Methyl-Prednisone
